Data taken from patent publication EP2386565A2, “Compounds and methods to inhibit or augment an inflammatory response” (Cambridge Enterprise Ltd., priority 1999, dated 2000).
Positions of bridges follow the written chain, without caps; N, C: chain ends. Non-standard residues stand in square brackets, D forms with d. Residues, ends and D or L forms follow the SMILES beside them.

Assays:
trypsin = assay: Stability against enzymatic destruction; type: in vitro ADME; details: 5 units trypsin for 2 hrs at 37°C
Description: For example, to prepare a peptide 3 derivative, peptide 3(3-12)[MCP-1] was modified according to Jameson et al. (Nature, 368, 744 (1994)), which yielded CRD-Cys13Leu4Ile11peptide 3(3-12)[MCP-1] (Figure 3).

α2-adrenoceptors = assay: Competition of 3H-RS-79948-197 binding to membranes; details: 100 µM highest concentration tested
Description: For α2-adrenoreceptor binding, membranes (A-213, RBI/Sigma)) are diluted into binding buffer (75 mM Tris pH 7.4, 12.5 mM MgCl2 and 2 mM EDTA). For example, 10 µl of membranes are diluted in 500 µl of binding buffer (i.e., 1:50 dilution), which is aliquoted into tubes. Cold competitor or test competitor is added, for example, 5 µl of 1 mM oxymetazoline (O-110, RBI/Sigma, 1 mM stock in MilliQ water). Radioligand is then added (^3H-RS-79948-197, TRK 1036, Amersham, 50 µCi in 250 µl, 2.1 µM at 95 Ci/mmol). For competition studies, 1 nM is used. A 100x stock (i.e., 100 nM) is made by diluting the commercial stock 1:20 in binding buffer, and 5 µl is added to every tube. Control tubes have radioligand but no membranes. The mixtures are vortexed, then spun very briefly. The mixtures are then incubated for 1 hour at 27°C in a water bath. The mixture is filtered through GF/C filters over a vacuum. Each filter is pre-soaked in polyethyleneimine (0.3% in water; add 1 ml of 10% stock (P-261; RBI/Sigma) to 33 ml of MilliQ water). The tubes are washed with 2-3 ml of wash buffer (50 mM Tris pH 7.4) and the wash filtered. The filters are then rinsed with 3 × 5 ml of wash buffer, air dried, placed in a scintillation vial and 4.5 ml of scintillant added. The activity on the filter is then determined.

[1] = target: T1, 5-HT1a serotonin receptors (Homo sapiens, UniProt P08908); assay: Competition of 3H-8-OH-DPAT binding to membranes; details: 100 µM highest concentration tested
T1 construct: purchased RBI/Sigma S-160; host or cells: membranes
Description: For SHT1a serotonin receptors, membranes (S-160, RBI/Sigma) are diluted into binding buffer (50 mM Tris pH 7.4 10 mM MgCl2 and 0.5 mM EDTA, with ascorbate at 1 mg/ml added immediately before use), e.g., 10 µl of membranes in 500 µl assay volume (i.e., 1:50 dilution). Cold competitor or test competitor is then added, e.g., 5 µl of 100x stock solution such as 5 µl of 1 mM oxymetazoline. Radioligand (^3H-8-OH-DPAT, TRK850, Amersham, 250 µCi in 250 µl; 4.5 µM at 222 Ci/mmol) is then added. For competition studies, ligand is employed (e.g., a 100x stock (i.e., 150 nM) is prepared by diluting the commercial stock 1:30 in binding buffer). Control tubes are prepared which have radioligand but no membranes. The tubes are vortexed then spun briefly. The mixtures are incubated for 1 hour at 4°C. The mixtures are filtered through GF/C filters pre-soaked in polyethyleneimine (0.3% in MilliQ water). The tubes are washed with 2-3 ml of wash buffer and filtered. The filter is washed with 3 x 5 ml of wash buffer, and air dried. 4.5 ml of scintillant is added to the dried filter in a scintillation vial and the filter counted on a tritium channel.

[2] = tested on: MCP-1 induced human monocyte migration; assay: Migration of freshly prepared peripheral blood monocytes, MCP-1; type: cell-based
Description: (§1) Agents may also be screened in a chemotactic assay which employs human neutrophils, eosinophils, mast cells, basophils, platelets, lymphocytes or monocytes. For monocytes, 9 mls of fresh blood are transferred to a tube containing 1 ml of 3.8% sodium citrate, and left at room temperature for 15 minutes. Five mls of this anti-coagulated blood are carefully layered over 3.5 ml Polymorphprep® (Nycomed Pharma, Oslo), and centrifuged at 500 g for 35 minutes per the manufacturer's instructions. The top band at the sample/medium interface contains monocytes. The monocytes are carefully removed with a glass pipette, and reconstituted to the original volume (5 ml). The cells are washed with PBS plus 10% fetal calf serum, and centrifuged at 400 g for 10 minutes. The washing step is repeated three times before the cells are counted. Cells are resuspended at 1 × 10^7 cells/ml in RPMI-1640 + 10% fetal calf serum (FCS). The monocytes are cultured for two days at 37°C in a humidified atmosphere of 5% CO2-
(§2) On day 2, the cells are counted, spun down, and reconstituted to 1 × 10^7 cells/ml in Gey's balanced salt solution + 1 mg/ml bovine serum albumin (BSA). […]

[3] = tested on: MIP1α induced human monocyte migration; assay: Migration of freshly prepared peripheral blood monocytes, MIP1α; type: cell-based
Description: as §1, §2

T1 sequence (P08908 whole entry): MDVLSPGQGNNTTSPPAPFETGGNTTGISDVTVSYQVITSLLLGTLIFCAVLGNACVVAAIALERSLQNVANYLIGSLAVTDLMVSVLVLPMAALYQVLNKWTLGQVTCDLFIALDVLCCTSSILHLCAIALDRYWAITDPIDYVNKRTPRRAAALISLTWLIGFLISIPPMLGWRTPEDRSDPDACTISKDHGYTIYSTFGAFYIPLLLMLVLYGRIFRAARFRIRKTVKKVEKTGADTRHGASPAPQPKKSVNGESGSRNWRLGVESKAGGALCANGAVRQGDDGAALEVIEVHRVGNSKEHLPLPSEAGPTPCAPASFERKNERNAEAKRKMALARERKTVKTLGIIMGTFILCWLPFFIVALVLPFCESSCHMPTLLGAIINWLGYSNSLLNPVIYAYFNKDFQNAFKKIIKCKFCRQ

Structure (SMILES) | stability against enzymatic destruction (in words) (trypsin) | ED50 for competition of RS79943 binding to α2-adrenoceptors (α2-adrenoceptors) [µM] | ED50 for competition of 8-OH-DPAT binding to 5-HT1a receptors [1] [µM] | % inhibition at 100 µM versus MCP-1 [2] | % inhibition at 100 µM versus MIP1α [3]
CC[C@@H](C)[C@H]1NC(=O)[C@@H](CCC(N)=O)NC(=O)[C@H](N)CSSC[C@H](C(N)=O)NC(=O)[C@@H](CC(C)C)NC(=O)[C@@H](CC(=O)O)NC(=O)[C@H]2CCCN2C(=O)[C@@H](CCCCN)NC(=O)[C@@H](CCC(N)=O)NC(=O)[C@@H](CCCCN)NC(=O)[C@@H](Cc2c[nH]c3ccccc23)NC1=O (H-[dC][dQ][dI][dW][dK][dQ][dK][dP][dD][dL][dC]-NH2; disulfide 1-11) | stable | >100 | >100 |  | 
CC[C@H](C)[C@H](NC(=O)[C@H](C)NC(=O)[C@H](CC(=O)O)NC(=O)[C@@H]1CCCN1C(=O)[C@H](CCC(N)=O)NC(=O)[C@H](C)N)C(=O)N[C@@H](CC(N)=O)C(=O)N[C@@H](C)C(=O)N1CCC[C@H]1C(=O)N[C@H](C(=O)N[C@H](C(=O)N[C@@H](CS)C(=O)N[C@@H](CS)C(=O)O)[C@@H](C)O)C(C)C [Peptide 1] (H-AQPDAINAPVTCC-OH; N-terminus and C-terminus assumed) |  |  |  | n.s. | n.s.
